Reference: the NIST ThermoML archive (doi:10.1021/acs.jced.6b00192)

Conditions: Liquid, Vibrating tube method

CCCCOCCO [2-butoxyethan-1-ol]
mass density [kg/m3]
Conditions	283.15 K	293.15 K	303.15 K	313.15 K	323.15 K	333.15 K	343.15 K	353.15 K	363.15 K
100 kPa	907.9	900.5	891.8	883.5	874	865.6	856.5	847.5	838.2
1000 kPa	908.3	900.6	892.1	884	875	866.1	857.4	848.4	839.4
3000 kPa	909.9	902.2	893.9	885.6	876.5	868	859.3	850.5	841.4
5000 kPa	911	903.2	895.4	887.1	878.1	869.5	861.1	852.2	843.4
10000 kPa	914.2	906.8	898.9	890.7	881.9	873.5	865.1	856.7	847.9
15000 kPa	917.1	910	902	894.1	885.5	877.3	869.1	860.9	852.6
20000 kPa	920	912.9	905.5	897.3	889.1	880.9	873.2	864.8	856.4
25000 kPa	922.8	915.9	908.7	900.7	892.1	884.4	876.5	868.7	860.4
30000 kPa	925.6	918.8	911.8	903.6	895.4	887.6	880.1	872.3	864.4
35000 kPa	928.4	921.4	914.5	906.7	898.5	890.8	883.5	875.9	868.1
40000 kPa	930.9	924	916.7	909.4	901.6	894	886.7	879.2	871.8
50000 kPa	935.7	929.5	921.8	915.1	907.3	900.1	893	885.6	878.4
60000 kPa	940.5	933.9	927.1	920.1	912.9	905.7	898.6	891.8	884.8
